Results as given in patent US20250367282A1, “POLYCATION CARRIER PARTICLE” (ALLARTA LIFE SCIENCE INC., priority 2022, published 2025).

Tests used:
[1] = tested on: RAW 264.7 macrophage cells; format: cell-based
Description: The cells were cultured for 3 days to reach about 80% confluence. The media was removed from the wells and the cells were washed once with about 250 μL of PBS. […] As controls, cells were exposed to a) 100 μL of serum-free DMEM, b) 100 µL of 10% v/v DMSO in serum-free DMEM, and c) 100 μL of 0.1 wt. % OVA-FITC in serum-free DMEM, were added to the cells. The cells were incubated for 4 h at 37° C., 5% CO2 in a humidified atmosphere. […] After 15 min, the paraformaldehyde solution was removed, the cells were washed twice with about 250 μL of PBS, and then 100 μL of PBS was added to the fixed cells. The cells were then imaged by brightfield and confocal fluorescence microscopy

[2] = tested on: RAW 264.7 macrophage cells; assay: MTS cytotoxicity assay; format: cell-based; conditions: 4 hours incubation; particles 0.1 wt. %, DMSO 10% v/v, serum-free DMEM; mean±standard deviation
Description: The cells were cultured for 3 days to reach around 80% confluence. The media was removed from the wells and the cells were washed once with about 250 μL of PBS. […] As controls, 100 μL of serum-free DMEM supplemented with 1% penicillin-streptomycin, 100 μL of 10% v/v DMSO in serum-free DMEM supplemented with 1% penicillin-streptomycin, 100 μL of 0.1 wt. % OVA-FITC in serum-free DMEM supplemented with 1% penicillin-streptomycin, and 100 μL of 0.1 wt. % HD particles suspensions in serum-free DMEM supplemented with 1% penicillin-streptomycin were added to the cells. The cells were incubated for 4 h at 37° C., 5% CO2 in a humidified atmosphere. 20 μL of MTS solution (Promega) was added to the wells and mixed. The plates were shaken at a horizontal distance of 1 mm for 10 seconds and read at 490 nm using a Biotek™ 800 TS absorbance reader. Statistical analysis was performed on the data using one-way analysis of variance (ANOVA) with a Bonferroni post hoc analysis. Significance level was set at p<0.05.

Compound: C[S+](C)[O-] [DMSO, dimethyl sulfoxide]
- cell morphology by brightfield microscopy [1]: rounded cell morphology and signs of apoptosis
- mean viability of RAW 264.7 cells [2]: 64±12%
